Test results published in PubChem BioAssay AID2060488 (Molecular Pharmacology Branch, DTP, NCI, 2025).

Test system: 966289-007-R4-J1-PDC complex spheroid viability
Test: Anticancer human tumor 966289-007-R4-J1-PDC patient-derived pancreatic adenocarcinoma cell line growth inhibition [GQUAD]
Settings: for IC50: curve of first compound; for viability, T/C: stronger effect = lower value
Source text: DNA G-quadruplex Stabilizer Agents in Combinations in Complex Spheroids
A high-throughput screen of multi-cell type tumor spheroids was designed to identify active combinations of DNA G-quadruplex stabilizer agents and targeted small molecules. Complex spheroids include a stromal component modeled by human endothelial cells (HUVEC) and fibroblasts modeled by human mesenchymal stem cells (MSCs). The concentration ranges selected for each drug and investigational agent were based upon clinically achievable concentrations if the clinical Cmax of the agent was known.
Compounds. The drugs and investigational agents: pidnarulex (CX-5461; NSC782164), APTO-253 (NSC789042), BRACO-19 (NSC847499), peposertib (NSC802822), ceralasertib (NSC780249), elimusertib (NSC800525), camonsertib (NSC841442), AZD-1390 (NSC803789), olaparib (NSC753686), talazoparib (NSC767125), ART-558 (NSC835418), sotorasib (NSC818433), MRTX-1133 (NSC836407), SN-38 (NSC673596), topotecan (NSC609699), etoposide (NSC141540), doxorubicin (NSC123127), gemcitabine (NSC613327), 5-fluorouracil (NSC19893), paclitaxel (NSC125973), vemurafenib (NSC761431), panobinostat (NSC761190), R-306465 (JNJ-16241199; NSC773264), adavosertib (NSC754352), TP-3654 (NSC805149), carboplatin (NSC241240), KSQ-4279 (NSC840948), and staurosporine (NSC755774) were obtained from the National Cancer Institute (NCI) Developmental Therapeutics Program Chemical Repository (34). The FDA-approved anticancer drug set is available from the NCI Developmental Therapeutics Program. […] The stock solutions were prepared in dimethyl sulfoxide (DMSO, Sigma-Aldrich, St. Louis, MO, cat. D2650) at 800-fold the tested concentration and stored at -70 degrees C prior to their use. All drugs and investigational agents were tested over a range starting from a high concentration at or near the clinical Cmax and decreasing in half-log increments. If the clinical Cmax for an agent had not been determined, the highest concentration tested was 10 microM.
2.3 Cell Culture. All cells were maintained in an incubator at 37 degrees C and 5% CO2 with 95% humidity. The PDC lines were cultured according to standard operating procedures established by the NCI PDMR. All PDCs were thawed and cultured in Matrigel-coated flasks prepared with a working solution of 1X Ham's F-12 nutrient mix, without supplementation (Invitrogen, cat. 11765054), 100 U/mL penicillin-streptomycin (Invitrogen, cat. 15140122), and 2.5% Matrigel (Corning Inc., cat. 354248) for the first three passages. The 857933-349-R-J2-PDC line was cultured in 6C/Colon 1B media, which includes advanced DMEM/F-12 (Thermo Fisher Scientific, cat. 12634028), 10 mM HEPES (Thermo Fisher Scientific, cat. 15630080), 1X GlutaMAX supplement (Thermo Fisher Scientific, cat. 35050061), 0.1 mg/mL primocin (InvivoGen, cat. ant-pm-2), 10% defined fetal bovine serum, heat inactivated (HyClone Laboratories Inc., cat. SH30070.03HI), 50% L-WRN conditioned media (ATCC, cat. CRL-3276), 1.25 mM N-Acetyl-L-cysteine (Sigma-Aldrich, cat. A9165), 10 mM nicotinamide (Sigma-Aldrich, cat. N0636), 1X B-27 supplement (Thermo Fisher Scientific, cat. 17504044), 1X N-2 supplement (Thermo Fisher Scientific, cat. 17502048), 10 microM Y-27632 dihydrochloride (Tocris Bioscience, cat. 1254), and 50 ng/mL human EGF recombinant protein (Thermo Fisher Scientific, cat. PHG0311). The 485176-168-R4-J1-PDC line was cultured in Panc media, which includes all 6C/Colon 1B media components plus 100 ng/mL human FGF-10 (Thermo Fisher Scientific, cat. 100-26), 500 nM SB-431542 (Selleckchem, cat. S1067), and gastrin (Tocris, cat. 3006).
[…]

[1] = second compound 0.0316 µM, first compound 0.0316 µM
[2] = second compound 0.0316 µM, first compound 0.316 µM
[3] = second compound 0.1 µM, first compound 0.0316 µM
[4] = second compound 0.1 µM, first compound 0.316 µM
[5] = second compound 0.316 µM, first compound 0.0316 µM
[6] = second compound 0.316 µM, first compound 0.316 µM
[7] = second compound 1 µM, first compound 0.0316 µM
[8] = second compound 1 µM, first compound 0.316 µM
[9] = second compound 3.16 µM, first compound 0.0316 µM
[10] = second compound 3.16 µM, first compound 0.316 µM
[11] = second compound 10 µM, first compound 0.0316 µM
[12] = second compound 10 µM, first compound 0.316 µM
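Further: spheroids exposed to the agents for seven days before readout.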
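Wherever viability, T/C is given: percent viability relative to DMSO vehicle control wells taken as 100%.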

`COc1cccc2c1C(=O)c1c(O)c3c(c(O)c1C2=O)CC(O)(C(=O)CO)CC3OC1CC(N)C(O)C(C)O1` (centres undefined) + CN(C)c1ccc(Nc2c3ccc(NC(=O)CCN4CCCC4)cc3nc3cc(NC(=O)CCN4CCCC4)ccc23)cc1 gave an IC50 (second compound 0.0316 µM) of 69.2 nM, an IC50 (second compound 0.1 µM) of 67.1 nM and an IC50 (second compound 0.316 µM) of 65.1 nM. The IC50 (second compound 1 µM) was 66.2 nM, the IC50 (second compound 3.16 µM) was 65.7 nM and the IC50 (second compound 10 µM) was 59.6 nM. It also gave a viability, T/C [1] of 112%, a viability, T/C (second compound 0.0316 µM, first compound 0.1 µM) of 20.7% and a viability, T/C [2] of 3.69%. For the same molecule, the viability, T/C (second compound 0.0316 µM, first compound 1 µM) was 0.82%, the viability, T/C (second compound 0.0316 µM, first compound 3.16 µM) was 0.35% and the viability, T/C (second compound 0.0316 µM, first compound 10 µM) was 0.92%. It also gave a viability, T/C [3] of 108%, a viability, T/C (second compound 0.1 µM, first compound 0.1 µM) of 19.4% and a viability, T/C [4] of 3.8%. The viability, T/C (second compound 0.1 µM, first compound 1 µM) was 0.83%, the viability, T/C (second compound 0.1 µM, first compound 3.16 µM) was 0.26% and the viability, T/C (second compound 0.1 µM, first compound 10 µM) was 0.53%. For the same molecule, the viability, T/C [5] was 105%, the viability, T/C (second compound 0.316 µM, first compound 0.1 µM) was 17.7% and the viability, T/C [6] was 3.65%. It also gave a viability, T/C (second compound 0.316 µM, first compound 1 µM) of 0.88%, a viability, T/C (second compound 0.316 µM, first compound 3.16 µM) of 0.29% and a viability, T/C (second compound 0.316 µM, first compound 10 µM) of 0.67%. The viability, T/C [7] was 101%, the viability, T/C (second compound 1 µM, first compound 0.1 µM) was 21.3% and the viability, T/C [8] was 3.85%. The viability, T/C (second compound 1 µM, first compound 1 µM) was 0.93%, the viability, T/C (second compound 1 µM, first compound 3.16 µM) was 0.27% and the viability, T/C (second compound 1 µM, first compound 10 µM) was 0.34%. For the same molecule, the viability, T/C [9] was 106%, the viability, T/C (second compound 3.16 µM, first compound 0.1 µM) was 18.1% and the viability, T/C [10] was 3.67%. For the same molecule, the viability, T/C (second compound 3.16 µM, first compound 1 µM) was 0.97%, the viability, T/C (second compound 3.16 µM, first compound 3.16 µM) was 0.25% and the viability, T/C (second compound 3.16 µM, first compound 10 µM) was 0.67%. For the same molecule, the viability, T/C [11] was 97.9%, the viability, T/C (second compound 10 µM, first compound 0.1 µM) was 11% and the viability, T/C [12] was 1.38%. For the same molecule, the viability, T/C (second compound 10 µM, first compound 1 µM) was 0.42%, the viability, T/C (second compound 10 µM, first compound 3.16 µM) was 0.24% and the viability, T/C (second compound 10 µM, first compound 10 µM) was 0.29%.

`Cn1ncnc1[C@H]1c2n[nH]c(=O)c3cc(F)cc(c23)N[C@@H]1c1ccc(F)cc1` + CN(C)c1ccc(Nc2c3ccc(NC(=O)CCN4CCCC4)cc3nc3cc(NC(=O)CCN4CCCC4)ccc23)cc1 was tested, and the IC50 (second compound 0.0316 µM) was 161 nM, the IC50 (second compound 0.1 µM) was 164 nM and the IC50 (second compound 0.316 µM) was 168 nM. For the same molecule, the IC50 (second compound 1 µM) was 137 nM, the IC50 (second compound 3.16 µM) was 104 nM and the IC50 (second compound 10 µM) was 47.5 nM. The viability, T/C (second compound 0.0316 µM, first compound 0.000999 µM) was 107%, the viability, T/C (second compound 0.0316 µM, first compound 0.00316 µM) was 101% and the viability, T/C (second compound 0.0316 µM, first compound 0.00999 µM) was 109%. The viability, T/C [1] was 104%, the viability, T/C (second compound 0.0316 µM, first compound 0.0999 µM) was 71.7% and the viability, T/C [2] was 19%. The viability, T/C (second compound 0.1 µM, first compound 0.000999 µM) was 105%, the viability, T/C (second compound 0.1 µM, first compound 0.00316 µM) was 101% and the viability, T/C (second compound 0.1 µM, first compound 0.00999 µM) was 105%. The viability, T/C [3] was 105%, the viability, T/C (second compound 0.1 µM, first compound 0.0999 µM) was 75.2% and the viability, T/C [4] was 16.9%. The viability, T/C (second compound 0.316 µM, first compound 0.000999 µM) was 95.1%, the viability, T/C (second compound 0.316 µM, first compound 0.00316 µM) was 99.7% and the viability, T/C (second compound 0.316 µM, first compound 0.00999 µM) was 104%. For the same molecule, the viability, T/C [5] was 107%, the viability, T/C (second compound 0.316 µM, first compound 0.0999 µM) was 73.3% and the viability, T/C [6] was 21.7%. It also gave a viability, T/C (second compound 1 µM, first compound 0.000999 µM) of 95.9%, a viability, T/C (second compound 1 µM, first compound 0.00316 µM) of 97.2% and a viability, T/C (second compound 1 µM, first compound 0.00999 µM) of 104%. For the same molecule, the viability, T/C [7] was 106%, the viability, T/C (second compound 1 µM, first compound 0.0999 µM) was 62.5% and the viability, T/C [8] was 16.9%. For the same molecule, the viability, T/C (second compound 3.16 µM, first compound 0.000999 µM) was 91.5%, the viability, T/C (second compound 3.16 µM, first compound 0.00316 µM) was 109% and the viability, T/C (second compound 3.16 µM, first compound 0.00999 µM) was 109%. The viability, T/C [9] was 104%, the viability, T/C (second compound 3.16 µM, first compound 0.0999 µM) was 51.2% and the viability, T/C [10] was 13%. For the same molecule, the viability, T/C (second compound 10 µM, first compound 0.000999 µM) was 103%, the viability, T/C (second compound 10 µM, first compound 0.00316 µM) was 104% and the viability, T/C (second compound 10 µM, first compound 0.00999 µM) was 102%. It also gave a viability, T/C [11] of 69.1%, a viability, T/C (second compound 10 µM, first compound 0.0999 µM) of 15% and a viability, T/C [12] of 5.65%.
